Measurements as given in patent US11400082B2, “Methods of treating elevated plasma cholesterol” (Montréal Heart Institute, priority 2017, dated 2022).
Read-outs that look alike come from different tables or passages of the source.

Assays:
Golden Syrian = assay: Efficacy and safety in hypercholesterolemic animal models, Golden Syrian; type: in vivo; details: 10 days
Procedure: (§1) For in vivo proof-of-concept animal studies, wild-type C57BL/6 male mice (˜25 g; obtained from Charles River Laboratories) or Golden Syrian (˜120 g obtained from Envigo++) were housed in the 12 hour light/12 hour dark cycle, temperature and humidity controlled MHI animal facility. […] TD.88137, Envigo) for 14 days. […] Equivalent volume of vehicle containing corresponding formulations were orally administered to mice daily and designated as placebo (vehicle). […] Total cholesterol (catalog no. 439-17501, Wako) was quantified in total plasma and in each 0.3 mL collected fractions or in-line (Lipidomics Core of The Group on Molecular and Cell Biology of Lipids, University of Alberta) according to the manufacturer's instructions. Relative quantitation of AUC of total cholesterol corresponding to non-HDL lipoprotein positive fractions obtained from FPLC profiles are included in Table 3. Serum aspartate aminotransferase (AST) and alanine transaminase (ALT) were measured by the Montreal Heart Institute biochemical clinical chemistry platform according to manufacturer's recommendations.

[1] = Cell viability assay (MTT); type: cell-based; details: human; overnight incubation, viability relative to DMSO
Procedure: Following incubation, media was replaced and cells incubated for 4 h with 100 μL of phenol red-free DMEM containing 0.5 mg/mL of MTT (3-[4,5-dimethylthiazol-2-yl]-2,5-diphenyltetrazolium bromide; thiazolyl blue; catalog no. M5655, Sigma-Aldrich). Afterwards, media was removed and converted dye solubilized with 100 μL acidic isopropanol (0.06 N) and absorbance measured at a wavelength of 570 nm with background subtraction at 650 nm. Arbitrary units of cell viability of a given example were determined relative to equal volume of DMSO (vehicle) for each concentration used.

in vitro = details: pH 7.4; for -k: 1 μM; for half-life at 1 μM / microsomal CLint at 1 μM: microsomes
Procedure: Pooled human liver microsomes (HLM; Cat #X008067 lot IHG) and pooled male Sprague Dawley rat liver microsomes (RLM; Cat #M00001 Lot NNK) were purchased from BioreclamationIVT, Baltimore, Md. NADPH (Cat #N1630, 95% HPLC) and DMSO (GC grade) were purchased from Sigma-Aldrich, Canada. Potassium phosphate buffer (100 mM) with magnesium chloride pH 7.4 was prepared freshly. […] Reactions were initiated by adding NADPH (final concentration 1 mM) in all the wells. Reactions without NADPH were also incubated (final point only) to rule out non-NADPH metabolism or chemical instability in the incubation buffer. Reactions were terminated at each time point (0, 5, 10, 20, 30, 45 and 60 min) by transferring 50 μL in a new 96 well plate and adding 100 μl of acetonitrile containing an internal standard (labetalol at 2 μM). The plates were centrifuged at 4000 rpm for 5 min, and an aliquot of supernatant was diluted with one volume of water+0.1% formic acid before analysis by LC-MS/MS. Reference samples were also prepared at concentrations between 0.002 and 2 μM in buffer containing microsomes, by adding the diluted solutions of the compound to the buffer containing microsomes quenched with 2 volume of acetonitrile containing the internal standard (whereas the incubation T0 is obtained by quenching the microsomes containing the compound, then adding NADPH). Samples were monitored for parent compound disappearance in Multi Reaction Monitoring (MRM) mode using LC-MS/MS. The peak area ratios of analyte versus internal standard compared to the calibration curve were used to calculate concentration at each time point. The elimination constant (ke, min-1) was obtained from the log-linear regression of the concentration (y) versus time (t). The half-life was calculated as T½ (min)=0.693/ke. The microsomal intrinsic clearance (Clint, μL/min/mg of protein) was calculated by the following equation: […]

[2] = Pharmacokinetics in adult Sprague-Dawley rats; type: in vivo; details: average n = 4; for Cmax / AUC / AUC(0-t): rat blood
Procedure: All animal studies were approved by the Montreal Heart Institute (MHI) Animal Care and Ethical committee. Pharmacokinetic experiments were performed in collaboration at the Montreal Heart Institute in collaboration with the Platform of Biopharmacy at Université de Montréal. Briefly, Compound 2 (formulation PG:H20; 50:50 stock solution 2.5 mg/ml) was administered intravenously (iv) at 5 mg/kg (n=4) or by oral gavage (PO) at 25 mg/kg (n=4) in adult Sprague-Dawley male rats (˜200 g). […] Samples were mixed and centrifuged at 15000 rpm for 5 min. 50 μL of supernatant were transferred to an HPLC plate, and 100 μL of water+0.1% formic acid were added. […] Samples were analyzed in MRM mode using LC-MS/MS. The calibration curve was plotted using the ratio of the analyte peak area and the IS peak area, using a quadratic regression. Pharmacokinetic (PK) parameters were calculated using Kinetica Software for PK/PD Data Analysis, Simulation and Reporting (Thermo Fisher), based on the blood concentrations of each animal. Results are described in Table 4 and illustrated in FIG. 20.

C57BL/6 mice = assay: Efficacy and safety in hypercholesterolemic animal models, C57BL/6 mice; type: in vivo
Procedure: as §1

[3] = HFD, 40 mpk/d, animals out of n
[4] = male, Sprague-Dawley, rat, whole blood, PO 25 mg/kg
[5] = male, Sprague-Dawley, rat, whole blood, iv 5 mg/kg
[6] = male, Sprague-Dawley, whole blood, PO 25 mg/kg
[7] = male, Sprague-Dawley, whole blood, iv 5 mg/kg
[8] = C57BL/6, HFD, 40 mpk/d, 10 days, animals out of n

-k (in vitro; human): 0.000703 ± 1.9e-05 min⁻¹
half-life at 1 μM (in vitro; human): 16.4 ± 0.45 h
microsomal CLint at 1 μM (in vitro; human): 1.17 ± 0.03 µL/min/mg
-k (in vitro; male, Sprague Dawley, rat): 0.00126 ± 0.00019 min⁻¹
half-life at 1 μM (in vitro; male, Sprague Dawley, rat): 6.73 ± 0.467 h
microsomal CLint at 1 μM (in vitro; male, Sprague Dawley, rat): 6.19 ± 0.42 µL/min/mg
Lz ([2]; PO 25 mg/kg): 0.24 h⁻¹
Vss ([2]; PO 25 mg/kg): 2.43 L
clearance ([2]; PO 25 mg/kg): 13.44 mL/min
thalf ([2]; PO 25 mg/kg): 2.97 h
Cmax ([2]; PO 25 mg/kg): 7.09 μMolar
Lz ([2]; iv 5 mg/kg): 0.12 h⁻¹
thalf ([2]; iv 5 mg/kg): 6.60 h
Cmax ([2]; iv 5 mg/kg): 81.12 μMolar
bioavailability ([2]; male, Sprague-Dawley, rat, whole blood, PO 25 mg/kg vs iv 5 mg/kg): 15%
MRT [2, 4]: 3.44 h
Tmax [2, 4]: 0.33 h
MRT [2, 5]: 0.55 h
Tmax [2, 5]: 0.08 h
clearance ([2]; male, Sprague-Dawley, rat, whole blood, iv 5 mg/kg, read-out: Clearance): 2.2 mL/min
Vd ([2]; male, Sprague-Dawley, rat, whole blood, iv 5 mg/kg, read-out: Vss): 0.08 L
AUC [2, 6]: 24.3 µM·h
AUC(0-t) [2, 6]: 24.2 µM·h
AUC [2, 7]: 31.9 µM·h
AUC(0-t) [2, 7]: 31.8 µM·h
Structure (SMILES): O=C(NO)c1ncc(COc2ccc(F)cc2)c(CO)c1O [Compound 2, 5-(4-fluoro-phenoxymethyl)-3-hydroxy-4-hydroxymethyl-pyridine-2-carboxylic acid hydroxyamide]
LDL-C (%) (FPLC TC) (pooled plasma) (Golden Syrian; Chow, 40 mpk/d, n 3): −12%
LDL-C (%) (FPLC TC) (pooled plasma) (Golden Syrian; HFD, 5 mpk/d, n 3): −21 ± 10%
LDL-C (%) (FPLC TC) (pooled plasma) (Golden Syrian; HFD, 10 mpk/d, n 3): −15 ± 16%
LDL-C (%) (FPLC TC) (pooled plasma) (Golden Syrian; HFD, 20 mpk/d, n 3): −40 ± 7%
ALT (3 × ULN) (Golden Syrian; [3]): 0/3
AST (3 × ULN) (Golden Syrian; [3]): 0/3
LDL-C (%) (FPLC TC) (pooled plasma) (Golden Syrian; HFD, 40 mpk/d, n 3 (second HFD 40 mpk/d line)): −26 ± 12%
LDL-C (%) (FPLC TC) (pooled plasma) (Golden Syrian; HFD, 40 mpk/d, n 3, value marked (n = 1)): −47%
CC50 [1]: 50 µM
LDL-C (%) (FPLC TC) (pooled plasma) (C57BL/6 mice; C57BL/6, Chow, 25 mpk/d oral gavage, 3 days, n 3): −31%
LDL-C (%) (FPLC TC) (pooled plasma) (C57BL/6 mice; C57BL/6, HFD, 5 mpk/d oral gavage, 10 days, n 4): −3 ± 8%
LDL-C (%) (FPLC TC) (pooled plasma) (C57BL/6 mice; C57BL/6, HFD, 25 mpk/d oral gavage, 10 days, n 4): −28 ± 8%
LDL-C (%) (FPLC TC) (pooled plasma) (C57BL/6 mice; C57BL/6, HFD, 40 mpk/d oral gavage, 10 days, n 4): −35 ± 2%
ALT (3 × ULN) (C57BL/6 mice; [8]): 0/4
AST (3 × ULN) (C57BL/6 mice; [8]): 0/4
